In publication PMC6270973, “Two New Phenolic Compounds from the Heartwood of Caesalpinia sappan L” (Molecules, 2013):
Like-named read-outs stand apart in the source and are kept apart here.

Assays:
[1] = system: nitric oxide production in LPS-activated BV-2 microglia; experiment: Inhibition of NO production in LPS-stimulated BV-2 microglia; type: cell-based; conditions: for inhibitory activity against nitric oxide production (in words): IC50 values lower than those of quercetin, the positive control
Method: Two new compounds and six known compounds caesalpin J (3), 1-hydroxy-7-methylxanthone (4), 1,5-dihydroxyxanthone (5), 1,7-dihydroxyxanthone (6), butein (7), and sappanone A (8) were evaluated for their inhibitory activities against nitric oxide production in LPS-activated BV-2 microglia according to a previously described method.
Cytotoxicity was determined with the MTT assay.

[2] = Cytotoxicity (cell viability) by MTT assay; conditions: mouse, BV-2 microglia cells, Viability (at 50 µM, %), compound at 50 µM
Method: (§1) Each compound was dissolved in DMSO and further diluted in the medium to produce different concentrations with a maximum concentration of 50 μM. The absorbance was measured at 570 nm with a Multilabel Plate Reader (Sunrise TECAN, Männedorf, Switzerland). Cytotoxicity was determined with the MTT assay. Quercetin (Sigma-Aldrich, Foster City, CA, USA) was used as the positive control.

BV-2 microglia [3] = experiment: Cytotoxicity (cell viability) by MTT assay; conditions: compound at 50 µM, 50 µM
Method: as §1

BV-2 microglia [4] = system: BV-2 microglia
Method: as §1

[5] = Mus musculus, BV-2, LPS-activated BV-2 microglia, maximum concentration tested 50 μM, read-out: IC50 (µM), inhibition of NO production
[6] = LPS-activated BV-2 microglia, maximum concentration tested 50 μM, read-out: IC50 (µM), inhibition of NO production

IC50 [1, 5] [µM] | Compound | viability at 50 µM [2] [%] | inhibitory activity against nitric oxide production (in words) ([1]; LPS-activated BV-2 microglia) | also measured
23.4 | O=c1c(O)c(-c2ccc(O)c(O)c2)oc2cc(O)cc(O)c12 [quercetin, reference compound] |  |  | 
28.7 | O=c1c2cccc(O)c2oc2cccc(O)c12 [Compound 5, 1,5-dihydroxyxanthone] | 101 |  | 
56.7 | O=C1C=CC23CC(O)(COC2=C1)Cc1cc(O)c(O)cc13 (stereo not drawn) [Compound 2, 7,10,11-trihydroxydracaenone] | 99.3 |  | 
8.26 | O=C1/C(=C/c2ccc(O)c(O)c2)COc2cc(O)ccc21 [Compound 8, sappanone A] | 99.3 | obvious inhibitory activity | 
 | O=c1c2cc(O)ccc2oc2cccc(O)c12 [Compound 6, 1,7-dihydroxyxanthone] | 102 | obvious inhibitory activity | IC50 ([1]; Mus musculus, BV-2, read-out: IC50 (µM), inhibition of NO production): 21.5 µM
52.6 | CO[C@H]1[C@]2(O)COC3=CC(=O)C=C[C@@]31c1cc(O)c(O)cc1C2 [Compound 1, epicaesalpin J] | 96.5 |  | 
 | CO[C@H]1[C@]2(O)COC3=CC(=O)C=C[C@@]31c1cc(O)c(O)cc1C2 [Compound 3, caesalpin J] |  |  | IC50 [1, 6]: 45.9 µM; Viability (at 50 µM, %) (BV-2 microglia [3]): 96.13%
15.5 | O=C(/C=C/c1ccc(O)c(O)c1)c1ccc(O)cc1O [Compound 7, butein] | 94 | obvious inhibitory activity | 
 | 1-hydroxy-7-methylxanthone [Compound 4] |  | obvious inhibitory activity | IC50 [1, 6]: 14.2 µM; Viability (at 50 µM, %) (BV-2 microglia [4]): 98.94%
